How the values were obtained:
[1] = target: human KHK-C (Homo sapiens (Human), UniProt P50053); assay: KHK enzyme activity assay, human KHK-C (F1P production, RapidFire MS); assay type: biochemical; details: fructose 250 μM, ATP 150 μM; average ± SEM; read-out: hKHK-C IC50
Method: (§1) KHK Enzyme Activity Assay for Human KHK-C and Human KHK-A
(§2) The intrinsic potency for inhibition of KHK C or A activity may be measured using an enzymatic assay which measures the production of FIP. Compounds are prepared in DMSO and tested in a 10-point concentration curve, to create 3-fold serial dilutions of the compounds in a 96-well plate ranging from 20 μM to 1.02 nM. Enzyme is prepared in assay buffer [50 mM 4-(2-hydroxyethyl)piperazine-1-ethanesulfonic acid (HEPES), 10 mM potassium chloride, 100 mM magnesium chloride, 2 mM tris(2-carboxyethyl)phosphine (TCEP), 0.01% n-octyl glucoside] and incubated with compounds at RT for 15 min. The reaction is carried out in 100 μL volumes containing substrate concentrations of fructose (250 μM for KHK-C assay and 1.25 mM for KHK-A assay) and ATP (150 μM for both isoforms); which are further incubated at RT for 20 min. The reaction is then halted by the addition of stop buffer; consisting of 0.2% formic acid and 1 μg/ml ^13C6-fructose-6-phosphate (^13C6-F6P) internal standard. Plates are stored in −20° C. until RapidFire MS analysis.
(§3) RapidFire MS Analysis for Quantitation of F1P
(§4) An Agilent 300 RapidFire automated extraction system (Agilent, Santa Clara, Calif.) with three HPLC quaternary pumps is coupled to an Agilent 6495 triple quadrupole mass spectrometer (Agilent Technologies, Santa Clara, Calif.) equipped with an electrospray ionization (ESI) interface source. The RapidFire Mass Spec system is equipped with a reusable RapidFire C18 (type C) solid-phase extraction (SPE) cartridge (G9205 Å).
(§5) Solvent A, used for sample loading and washing, is 6 mM octylamine (Acros Organics 129495000) brought to pH 5.0 using acetic acid. Solvent B, used for sample elution, is 20% water in ACN containing 0.1% formic acid. Samples are sequentially analyzed by aspirating 10 μL onto the collection loop under vacuum directly from multiwell plates. The 10 μL of sample is loaded onto the C18 cartridge and washed using solvent A at a flow rate of 1.25 mL/min for 5000 ms. The retained analytes are then eluted to the mass spectrometer using solvent B at a flow rate of 1.25 mL/min for 5000 ms. The system is re-equilibrated using solvent at flow rate of 1.25 mL/min for 2000 ms.
(§6) The triple quadrupole mass spectrometer is equipped with an ESI source and analytes are monitored using selected reaction monitoring (SRM) in negative mode [M−H]−. F1P is monitored at m/z 259.02/96.9 and ^13C6-fructose-6-phosphate is monitored at m/z 264.99/97. The area ratio values for F1P is calculated using ^13C6-fructose-6-phospate as internal standard.

[2] = target: human KHK-A (Homo sapiens (Human), UniProt P50053); assay: KHK enzyme activity assay, human KHK-A (F1P production, RapidFire MS); assay type: biochemical; details: fructose 1.25 mM, ATP 150 μM; average ± SEM; read-out: hKHK-A IC50
Chain of human KHK-A (P50053 other isoform, or with tags, fused parts or gaps): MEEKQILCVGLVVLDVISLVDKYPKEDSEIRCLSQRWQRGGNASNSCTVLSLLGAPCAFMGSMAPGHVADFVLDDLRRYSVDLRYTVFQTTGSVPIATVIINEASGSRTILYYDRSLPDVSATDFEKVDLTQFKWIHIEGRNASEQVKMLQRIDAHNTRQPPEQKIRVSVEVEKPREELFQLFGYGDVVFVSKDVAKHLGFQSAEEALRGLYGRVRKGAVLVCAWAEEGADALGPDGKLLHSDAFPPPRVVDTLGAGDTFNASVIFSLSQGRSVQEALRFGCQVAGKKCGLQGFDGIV
Method: as §1, §2, §3, §4, §5, §6

Chain of human KHK-C (P50053 whole entry): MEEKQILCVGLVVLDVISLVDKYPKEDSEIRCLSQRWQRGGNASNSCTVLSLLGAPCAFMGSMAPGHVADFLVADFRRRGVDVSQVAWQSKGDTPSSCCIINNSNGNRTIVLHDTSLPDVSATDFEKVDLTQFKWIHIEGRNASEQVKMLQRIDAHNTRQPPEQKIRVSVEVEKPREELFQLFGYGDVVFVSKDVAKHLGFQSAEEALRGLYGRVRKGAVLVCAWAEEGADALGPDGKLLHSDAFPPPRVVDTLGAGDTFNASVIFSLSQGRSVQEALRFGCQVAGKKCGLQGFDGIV

Compound | IC50 [1] | IC50 [2]
OC[C@H]1CCN1c1nc(-c2cnn(C3CNC3)c2)cc(C(F)(F)F)n1 [Example 3, [(2R)-1-[4-[1-(Azetidin-3-yl)pyrazol-4-yl]-6-(trifluoromethyl)pyrimidin-2-yl]azetidin-2-yl]methanol] | 41.9 ± 6.77 nM | 45.4 ± 29.5 nM
C[C@H]1CCN1c1nc(-c2cnn(CC(=O)NCCO)c2)cc(C(F)(F)F)c1C#N [Example 5, 2-[4-[5-Cyano-6-[(2S)-2-methylazetidin-1-yl]-4-(trifluoromethyl)-2-pyridyl]pyrazol-1-yl]-N-(2-hydroxyethyl)acetamide] | 57 ± 32.6 nM | 37.7 ± 19.9 nM
N#Cc1c(C(F)(F)F)cc(-c2cnn(C3CCNCC3)c2)nc1N1CC[C@@H]1CO [Example 6, 2-[(2R)-2-(Hydroxymethyl)azetidin-1-yl]-6-[1-(4-piperidyl)pyrazol-4-yl]-4-(trifluoromethyl)pyridine-3-carbonitrile] | 25.7 ± 5.14 nM | 15.4 ± 5.05 nM
C[C@H]1CCN1c1nc(-c2cnn(C3CCN(C)CC3)c2)cc(C(F)(F)F)c1C#N [Example 8, 2-[(2S)-2-Methylazetidin-1-yl]-6-[1-(1-methyl-4-piperidyl)pyrazol-4-yl]-4-(trifluoromethyl)pyridine-3-carbonitrile] | 56.1 ± 62.5 nM | 25.2 ± 15.7 nM
C[C@H]1CCN1c1nc(-c2cnn(CCN(C)C)c2)cc(C(F)(F)F)c1C#N [Example 10, 6-[1-[2-(Dimethylamino)ethyl]pyrazol-4-yl]-2-[(2S)-2-methylazetidin-1-yl]-4-(trifluoromethyl)pyridine-3-carbonitrile] | 418 ± 503 nM | 246 ± 248 nM
C[C@H]1[C@H](O)CN1c1nc(-c2cnn([C@H]3CCNC3)c2)cc(C(F)(F)F)n1 [Example 15, (2S,3R)-2-Methyl-1-[4-[1-[(3S)-pyrrolidin-3-yl]pyrazol-4-yl]-6-(trifluoromethyl)pyrimidin-2-yl]azetidin-3-ol] | 27.2 ± 8.6 nM | 26.7 ± 3.66 nM
OC[C@H]1CCN1c1nc(-c2cnn([C@@H]3CCNC3)c2)cc(C(F)(F)F)n1 [Example 16, [(2R)-1-[4-[1-[(3R)-Pyrrolidin-3-yl]pyrazol-4-yl]-6-(trifluoromethyl)pyrimidin-2-yl]azetidin-2-yl]methanol] | 28 ± 17.3 nM | 30 ± 5.09 nM
C[C@H]1CCN1c1nc(-c2cnn(C3CCN(C(=O)CN)CC3)c2)cc(C(F)(F)F)c1C#N [Example 18, 6-[1-[1-(2-Aminoacetyl)-4-piperidyl]pyrazol-4-yl]-2-[(2S)-2-methylazetidin-1-yl]-4-(trifluoromethyl)pyridine-3-carbonitrile] | 59.2 ± 67.8 nM | 35.6 ± 32.4 nM
CC(=O)N1CCC(n2cc(-c3cc(C(F)(F)F)c(C#N)c(N4CC[C@@H]4C)n3)cn2)CC1 [Example 19, 6-[1-(1-Acetyl-4-piperidyl)pyrazol-4-yl]-2-[(2S)-2-methylazetidin-1-yl]-4-(trifluoromethyl)pyridine-3-carbonitrile] | 54.3 nM | 29.2 nM
C[C@H]1CCN1c1nc(-c2cnn(CC(=O)N3CCN(C)CC3)c2)cc(C(F)(F)F)c1C#N [Example 20, 2-[(2S)-2-Methylazetidin-1-yl]-6-[1-[2-(4-methylpiperazin-1-yl)-2-oxo-ethyl]pyrazol-4-yl]-4-(trifluoromethyl)pyridine-3-carbonitrile] | 150 ± 243 nM | 81.8 ± 92.6 nM
C[C@H]1CCN1c1nc(-c2cnn(CC(=O)N(CCO)CCO)c2)cc(C(F)(F)F)c1C#N [Example 21, 2-[4-[5-Cyano-6-[(2S)-2-methylazetidin-1-yl]-4-(trifluoromethyl)-2-pyridyl]pyrazol-1-yl]-N,N-bis(2-hydroxyethyl)acetamide] | 55.2 ± 28.1 nM | 39.2 ± 13.6 nM
C[C@H]1CCN1c1nc(-c2cnn(CC(=O)N3C[C@@H](O)[C@H](O)C3)c2)cc(C(F)(F)F)c1C#N [Example 22, 6-[1-[2-[(3R,4R)-3,4-Dihydroxypyrrolidin-1-yl]-2-oxo-ethyl]pyrazol-4-yl]-2-[(2S)-2-methylazetidin-1-yl]-4-(trifluoromethyl)pyridine-3-carbonitrile] | 61.3 ± 57.5 nM | 33.7 ± 17.8 nM
C[C@H]1CCN1c1nc(-c2cnn(CC(=O)N3C[C@H](O)[C@@H](O)C3)c2)cc(C(F)(F)F)c1C#N [Example 23, 6-[1-[2-[(3S,4S)-3,4-Dihydroxypyrrolidin-1-yl]-2-oxo-ethyl]pyrazol-4-yl]-2-[(2S)-2-methylazetidin-1-yl]-4-(trifluoromethyl)pyridine-3-carbonitrile] | 41.6 ± 47.1 nM | 24.9 ± 15.3 nM
C[C@H]1CCN1c1nc(-c2cnn(C3CCOCC3)c2)cc(C(F)(F)F)c1C#N [Example 26, 2-[(2S)-2-Methylazetidin-1-yl]-6-(1-tetrahydropyran-4-ylpyrazol-4-yl)-4-(trifluoromethyl)pyridine-3-carbonitrile] | 28.4 nM | 22.2 nM

Compounds with a lower IC50 [1], results first:

IC50 [1] | IC50 [2] | Compound
6.06 nM | 9.99 nM | C[C@H]1CCN1c1nc(-c2cnn(CC(O)CO)c2)cc(C(F)(F)F)c1C#N (single isomer, unassigned; isomer 1) [Example 24a]
4.89 nM | 6.75 nM | C[C@H]1CCN1c1nc(-c2cnn(CC(O)CO)c2)cc(C(F)(F)F)c1C#N (single isomer, unassigned; isomer 2) [Example 24b]
14.4 ± 1.12 nM | 11.4 ± 4.34 nM | C[C@H]1[C@H](O)CN1c1nc(-c2cnn(C3CNC3)c2)cc(C(F)(F)F)n1 [Example 4, (2S,3R)-1-[4-[1-(Azetidin-3-yl)pyrazol-4-yl]-6-(trifluoromethyl)pyrimidin-2-yl]-2-methyl-azetidin-3-ol]
18.1 ± 4.85 nM | 6.02 ± 2.27 nM | C[C@H]1[C@H](O)CN1c1nc(-c2cnn(C3CCNCC3)c2)cc(C(F)(F)F)c1C#N [Example 7, 2-[(2S,3R)-3-Hydroxy-2-methyl-azetidin-1-yl]-6-[1-(4-piperidyl)pyrazol-4-yl]-4-(trifluoromethyl)pyridine-3-carbonitrile]
6.26 nM | 3.58 nM | C[C@H]1CCN1c1nc(-c2cnn(C3CCN(CCO)CC3)c2)cc(C(F)(F)F)c1C#N [Example 9, 6-[1-[1-(2-Hydroxyethyl)-4-piperidyl]pyrazol-4-yl]-2-[(2S)-2-methylazetidin-1-yl]-4-(trifluoromethyl)pyridine-3-carbonitrile]
8.03 nM | 5.23 nM | C[C@H]1CCN1c1nc(-c2cnn(CCO)c2)cc(C(F)(F)F)c1C#N [Example 11, 6-[1-(2-Hydroxyethyl)pyrazol-4-yl]-2-[(2S)-2-methylazetidin-1-yl]-4-(trifluoromethyl)pyridine-3-carbonitrile]
3.87 ± 0.391 nM | 3.65 ± 0.817 nM | C[C@H]1CCN1c1nc(-c2cnn(C3CCNCC3)c2)cc(C(F)(F)F)c1C#N [Example 12, 2-[(2S)-2-Methylazetidin-1-yl]-6-[1-(4-piperidyl)pyrazol-4-yl]-4-(trifluoromethyl)pyridine-3-carbonitrile]
15.5 ± 20.4 nM | 7.69 ± 7.97 nM | C[C@H]1CCN1c1nc(-c2cnn(C3CCNCC3)c2)cc(C(F)(F)F)n1 [Example 13, 2-[(2S)-2-Methylazetidin-1-yl]-4-[1-(4-piperidyl)pyrazol-4-yl]-6-(trifluoromethyl)pyrimidine]
15.9 ± 4.37 nM | 19.1 ± 2.98 nM | C[C@H]1[C@H](O)CN1c1nc(-c2cnn([C@@H]3CCNC3)c2)cc(C(F)(F)F)n1 [Example 14, (2S,3R)-2-Methyl-1-[4-[1-[(3R)-pyrrolidin-3-yl]pyrazol-4-yl]-6-(trifluoromethyl)pyrimidin-2-yl]azetidin-3-ol]
16.1 ± 7.96 nM | 13.2 ± 12.7 nM | C[C@H]1CCN1c1nc(-c2cnn(C3CNC3)c2)cc(C(F)(F)F)c1C#N [Example 17, 6-[1-(Azetidin-3-yl)pyrazol-4-yl]-2-[(2S)-2-methylazetidin-1-yl]-4-(trifluoromethyl)pyridine-3-carbonitrile]
7.91 nM | 7.29 nM | C[C@H]1CCN1c1nc(-c2cnn(CC(O)CO)c2)cc(C(F)(F)F)c1C#N (stereo partly drawn) [Example 24, 6-[1-(2,3-Dihydroxypropyl)pyrazol-4-yl]-2-[(2S)-2-methylazetidin-1-yl]-4-(trifluoromethyl)pyridine-3-carbonitrile]
13.6 ± 7.2 nM | 16.9 ± 9.7 nM | C[C@H]1CCN1c1nc(-c2cn[nH]c2)cc(C(F)(F)F)c1C#N [Example 25, 2-[(2S)-2-Methylazetidin-1-yl]-6-(1H-pyrazol-4-yl)-4-(trifluoromethyl)pyridine-3-carbonitrile]
